Results as given in patent US20190183138A1, “MILK COAGULANT AND METHOD FOR PRODUCING CHEESE” (CHINA AGRICULTURAL UNIVERSITY, priority 2017, published 2019).
Square brackets hold non-standard residues; d marks the D form. Peptide text beside a SMILES is read from it. * marks the point of attachment. Sta = CC(C)C[C@H](N)[C@@H](O)CC(=O)O; Isovaleryl = CC(C)CC(=O)*

How the values were obtained:
[1] = system: C. otophyllum protease QA; assay type: biochemical, Cynanchum otophyllum Schneid.; conditions: inhibitor 8 mmol/L, 37° C., 30 min
Method: (§1) The caseinolytic activities of the C. otophyllum proteases were determined using a method modified from Mohanty et al. (2003). The substrate was prepared by dissolving 1% (wt/vol) of whole casein in 10 mmol/L of citric acidphosphate buffer (pH 6.5). The assay was performed by incubating 1.1 mL of substrate with 0.1 mL of partially purified protease extracted solution under 37° C. for 30 min and terminated using 1.8 mL of 5% (wt/vol) trichloroacetic acid (TCA). The blank control was prepared by adding the same amount of TCA to the protease extracted solution, then adding the substrate. After 30 min standing at room temperature, the completely precipitated proteins were removed by centrifuging at 5,000 × g for 20 min at room temperature. The protein content in the supernatant was then measured at 280 nm (UV-2102 PC, Unico Instrument Co. Ltd.). One unit of PA was defined as the amount of the protease extracted solution required for an increase of 0.01 in optical density in 1 min at 280 nm.
(§2) The type of protease was determined as described by Mazorra-Manzano et al. (2013) with modification.Different protease inhibitors (8 mmol/L, 0.1 mL), a serine protease (phenylmethylsulfonyl fluoride, PMSF), a cysteine protease [transepoxy-succinylleucyl-amido-(4-guanidino)-butane, E-64], a metallo protease (EDTA), and an aspartic protease (pepstatin A), were added to 1 mL of the proteases. The mixtures were incubated at 37° C. for 30 min, then PA was evaluated. The percentage inhibition was calculated as follows:
(§3) percentage inhibition=100−[100−(residual activity/activity without inhibitor)].

[2] = system: C. otophyllum protease QC; assay type: biochemical, Cynanchum otophyllum Schneid.; conditions: inhibitor 8 mmol/L, 37° C., 30 min
Method: as §1, §2, §3

[3] = system: C. otophyllum protease QA; assay: Effect of metal ions on milk-clotting activity; assay type: biochemical, Cynanchum otophyllum Schneid.; conditions: metal ion 10 mmol/L added to 12% (w/v) skim milk containing 10 mmol/L CaCl2, pH 6.5
From the text: (§4) Some metal ions as a cofactor can participate in the milk-clotting reaction, thus affecting activity of enzyme. Further, the skim milk is of increased iron strength after addition of salts, thus interfering the stability of casein micelle and the formation of the milk clot. […] The reason of the promotion on milk coagulant activity and the decrease in milk-clotting time by the calcium ions is that they combines with exposed α-casein and β-casein during aggregation of the casein (i.e. the second step of the milk-clotting reaction), so as to promote formation of the milk clot. Further, it has been investigated that the calcium ions protect enzyme, especially those being poor resistant to temperature, and stabilizes the structure of enzyme, thus an amount of CaCl2 is often added to protect the structure of enzyme during cheese production, for increasing activity and speeding milk-clotting.

[4] = system: C. otophyllum protease QC; assay: Effect of metal ions on milk-clotting activity; assay type: biochemical, Cynanchum otophyllum Schneid.; conditions: metal ion 10 mmol/L added to 12% (w/v) skim milk containing 10 mmol/L CaCl2, pH 6.5
From the text: as §4

12% skim milk = assay: Milk clotting activity (MCA) assay, curd formation time; assay type: biochemical; conditions: 12% skim milk in 10 mM CaCl2, pH 6.5, 37° C.; FIG. 5
Method: The MCA of the C. otophyllum proteases was determined using a modified method of He et al. (2011). One milliliter of substrate (12% skim milk in 10 mM CaCl2, pH 6.5) was incubated under 37° C. for 5 min, then 0.1 mL of the protease extracted solution was added. The time needed for curd formation was recorded and the MCA was expressed in Soxhlet units (SU). One SU of MCA was defined as the amount of the protease extracted solution required to clot 1 mL of substrate within 40 min at 37° C.
where V stands for the volume of the substrate (mL); v stands for the volume of the protease extract; and t stands for the milk-clotting time (s).
The C. otophyllum proteases were extracted as described by Huang et al. (2011) with some modifications. The C. otophyllum leaves were cut into pieces, mixed with a buffer at different solid-liquid ratios (i.e. ratio of mass to volume) for extraction, and then left for 2 h under 4° C., thus obtaining an extracted solution. After successive filtration through 4 layers of cheesecloth and a 0.22-μm membrane, the filtrate was concentrated by ultrafiltration with a 10-kDa molecular weight cut-off membrane at 8000 × g for 40 minutes at 4° C., with the retentate obtained as the concentrated solution of C. otophyllum proteases, which was assayed for protein concentration following the method of Bradford (1976) and curd formation time for 12% (w/v) skim milk.

Row | Compound | effect on milk-clotting activity of QA [3] | effect on milk-clotting activity of QC [4] | further results
1 | CC(C)C[C@H](NC(=O)[C@H]1O[C@@H]1C(=O)O)C(=O)NCCCCN=C(N)N [E-64, transepoxy-succinylleucyl-amido-(4-guanidino)-butane] |  |  | PA of QA in presence of inhibitor ([1]; 0.1 mL to 1 mL protease): 20 % of the control; PA of QC in presence of inhibitor ([2]; 0.1 mL to 1 mL protease): 20 % of the control
2 | O=C(O)CN(CCN(CC(=O)O)CC(=O)O)CC(=O)O [EDTA] |  |  | effect on the PA of QA [1]: does not affect; effect on the PA of QC [2]: does not affect
3 | O=S(=O)(F)Cc1ccccc1 [PMSF, phenylmethylsulfonyl fluoride] |  |  | reduction in the activity of QA ([1]; compared to the control): about 15%; reduction in the activity of QC ([2]; compared to the control): about 15%
4 | CC(C)CC(=O)N[C@H](C(=O)N[C@H](C(=O)N[C@@H](CC(C)C)[C@@H](O)CC(=O)N[C@@H](C)C(=O)N[C@@H](CC(C)C)[C@@H](O)CC(=O)O)C(C)C)C(C)C [pepstatin A] (Isovaleryl-VV[Sta]A[Sta]-OH) |  |  | effect on the PA of QA [1]: does not affect; effect on the PA of QC [2]: does not affect
5 | aluminium | significant increased effect | significant increased effect | 
6 | barium | no significant effect | no significant effect | 
7 | bromelain [reference compound] |  |  | MCA (milk-clotting activity) (12% skim milk): 222.2 SU/mg
8 | calcium | significant increased effect | significant increased effect | 
9 | copper | significant inhibition | significant inhibition | 
10 | lithium | no significant effect | no significant effect | 
11 | magnesium | no significant effect | no significant effect | 
12 | potassium | no significant effect | no significant effect | 
13 | sodium | no significant effect | no significant effect | 
14 | zinc | significant inhibition | significant inhibition | 
